Assays:
[1] = molecular target: HDAC 3 (Homo sapiens, UniProt O15379); details: reported by Ning et al.; cited from earlier work
[2] = tested on: MC38 murine colon carcinoma; assay: Example 3: second-line therapy after PD-L1 inhibitor antibody failure, MC38 syngeneic model in C57BL/6 mice; type: in vivo, mouse
Excerpt: In this model, a proportion of the animals treated 1st line with the PD-L1 checkpoint inhibitor antibody experience complete tumor regression. However, a similar proportion of animals treated 1st line with the PD-L1 inhibitor antibody experience rapid tumor progression. The balance of the animals treated in this way experience slow tumor progression or stable disease, which is a result which approximates the situation in a number of human cancer patients receiving PD-L1 inhibitor antibody therapy, i.e., they experience a transient partial response, including stable disease, but then develop resistance and rapidly progress, failing PD-1 inhibitor antibody therapy. In this example, the efficacy of HBI-8000 as a second-line therapy, alone and in combination with PD-1 inhibitor antibody RMPI-14, was evaluated for the ability to cause tumor growth delay (TGD) in animals which tumors which are progressing following PD-L1 inhibitor antibody first line therapy in the MC38 murine colon carcinoma syngeneic model in immunocompetent C57BL/6 mice.
Female C57BL/6 mice bearing subcutaneous MC38 tumors (mean tumor volume: 114 mm^3 when treatment began) were treated with a first line of therapy of PD-L1 inhibitor antibody treatment, administered intraperitoneally (i.p.) at 5 mg/kg, twice weekly for two weeks (biwk×2). […] Dosing began on D1, which represents the day of recruitment and varied among mice (this was normalized for each group). The second-line therapies were as follows. Vehicle was administered orally (p.o.). HBI-8000 was administered p.o. at 50 mg/kg. PD-1 inhibitor antibody and anti-PDL-1 were administered intraperitoneally (i.p) at 5 mg/kg. Group 1 mice served as controls and received 0.2% carboxymethyl cellulose: 0.1% Tween 80 in deionized water (vehicle) once daily for twenty-one days (qd×21). Group 2 received HBI-8000 qd×21. Group 3 received a second course of PD-L1 inhibitor antibody biwk×2. Group 4 received HBI-8000 qd×21 and PD-L1 inhibitor antibody biwk×2. Group 5 received anti-PD-1 biwk×2. Group 6 received HBI-8000 qd×21 and anti-PD-1 biwk×2. The study endpoint was tumor volume of 1500 mm^3 or 45 days, whichever came first. Tumor measurements were taken twice weekly until D44 with individual animals exiting the study upon reaching the tumor volume endpoint.
Tumor Implantation and Measurement: Details of tumor implantation and measurement of tumor growth used in this example can be found in Example 1. In this example, each mouse was inoculated subcutaneously in the right flank with 5×10^5 cells (0.1 mL of cell suspension).
Test Articles: HUYA Bioscience International provided HBI-8000 (Lot No. 1384:0033). PD-1 inhibitor antibody RMPI-14 (Lot No. 5611-10/0615) and PDL-1 antibody 10F.9G2 (anti-PDL-1, Lot No. 5786-7-8/0815) were purchased from Bio X cell (West Lebanon, N.H.). All agents were prepared according to protocol instructions.
Dosing Solutions: HBI-8000 was prepared by diluting in 0.2% CMC: 0.1% Tween 80 to yield a 5 mg/mL dosing solution. Dosing solutions were prepared fresh weekly and stored at 4° C. PD-1 inhibitor antibody dosing solution was prepared by diluting an aliquot of the stock (8.62 mg/mL) to 0.5 mg/mL in sterile PBS. The dosing solution was prepared twice weekly and stored at 4° C. Anti-PDL-1 antibody dosing solution was prepared by diluting an aliquot of the stock (5.37 mg/mL) to 0.5 mg/mL in sterile PBS. The anti-PDL-1 antibody dosing solution was prepared twice weekly and stored at 4° C.
Treatment: For the initial PD-L1 inhibitor antibody failure part of this study, 150 C57BL/6 mice were dosed i.p. with first line PD-L1 inhibitor antibody at 5 mg/kg, biwk×2. Animals that met the criteria for reenrollment comprised the efficacy study; this included animals with two consecutive increases in tumor volume and tumor volumes below 500 mm^3. […]

[3] = oral administration; cited from earlier work
[4] = molecular target: T1, HDAC 10 (Homo sapiens, UniProt Q969S8); details: reported by Ning et al.; cited from earlier work
T1 sequence (Q969S8 1-669): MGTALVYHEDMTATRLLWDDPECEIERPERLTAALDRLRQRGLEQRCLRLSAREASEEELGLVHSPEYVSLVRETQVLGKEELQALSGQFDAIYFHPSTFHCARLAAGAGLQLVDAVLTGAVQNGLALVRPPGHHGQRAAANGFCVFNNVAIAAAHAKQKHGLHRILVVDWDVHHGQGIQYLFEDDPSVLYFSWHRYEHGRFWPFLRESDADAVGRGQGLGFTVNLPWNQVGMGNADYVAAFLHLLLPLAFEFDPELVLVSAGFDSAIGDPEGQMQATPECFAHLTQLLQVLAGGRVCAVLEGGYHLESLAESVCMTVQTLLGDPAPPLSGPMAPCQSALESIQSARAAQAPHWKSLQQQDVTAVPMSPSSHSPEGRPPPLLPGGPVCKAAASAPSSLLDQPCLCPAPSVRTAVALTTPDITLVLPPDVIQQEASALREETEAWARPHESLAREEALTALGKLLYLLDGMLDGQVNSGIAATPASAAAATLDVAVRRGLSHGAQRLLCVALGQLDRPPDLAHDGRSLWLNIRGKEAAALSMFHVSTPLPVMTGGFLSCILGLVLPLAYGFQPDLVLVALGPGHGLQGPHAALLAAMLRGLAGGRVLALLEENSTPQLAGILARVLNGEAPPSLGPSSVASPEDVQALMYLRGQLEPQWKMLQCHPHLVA

[5] = HBI-8000 50 mg/kg p.o. qd×21, antibodies 5 mg/kg i.p., vs vehicle

HDAC 3, sequence (O15379 whole entry): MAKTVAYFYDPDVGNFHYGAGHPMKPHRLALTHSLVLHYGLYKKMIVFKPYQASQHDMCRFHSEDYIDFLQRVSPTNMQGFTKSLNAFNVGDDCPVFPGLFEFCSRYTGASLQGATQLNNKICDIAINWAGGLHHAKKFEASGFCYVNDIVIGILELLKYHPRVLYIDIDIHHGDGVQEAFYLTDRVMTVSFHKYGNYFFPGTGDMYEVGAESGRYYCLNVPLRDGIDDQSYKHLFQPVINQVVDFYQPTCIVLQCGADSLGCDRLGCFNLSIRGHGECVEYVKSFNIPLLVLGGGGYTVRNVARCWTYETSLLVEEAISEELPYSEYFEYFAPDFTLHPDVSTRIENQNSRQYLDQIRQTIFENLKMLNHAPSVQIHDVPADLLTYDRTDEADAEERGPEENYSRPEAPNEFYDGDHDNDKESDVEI
HDAC 3, sequence (Q9Y618 395-489 partner limits assumed): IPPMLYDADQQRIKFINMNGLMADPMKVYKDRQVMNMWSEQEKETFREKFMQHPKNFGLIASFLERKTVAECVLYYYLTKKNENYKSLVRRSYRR

Which results are given for `Nc1cc(F)ccc1NC(=O)c1ccc(CNC(=O)/C=C/c2cccnc2)cc1` [HBI-8000, N-(2-amino-4-fluorophenyl)-4-[[[(2E)-1-oxo-3-(3-pyridinyl)-2-propen-1-yl]amino]methyl]benz amide]?
activity at HDAC 3 compared with Entinostat [1]: more active than Entinostat; inhibition of HDAC 3 [1]: low nanomolar concentrations; Median TTE ([2]; HBI-8000 50 mg/kg p.o. qd×21, antibodies 5 mg/kg i.p., endpoint 1500 mm^3 or 45 days, n=10): 11.4 days; % TGD [2, 5]: 31.8%; Mean T-C [2, 5]: 3.0 days; CR (complete response), number of animals ([2]; n=10 per group): 1; NR (no response), number of animals ([2]; n=10 per group): 8; PR (partial response), number of animals ([2]; n=10 per group): 1; t1/2 [3]: about 17 hours; activity at HDAC 10 compared with Entinostat [4]: more active than Entinostat; inhibition of HDAC 10 [4]: low nanomolar concentrations
